Results: publication PMC9005747, “Application of per-Residue Energy Decomposition to Design Peptide Inhibitors of PSD95 GK Domain” (Frontiers in Molecular Biosciences, 2022)
Like-named read-outs stand apart in the source and are kept apart here. Each block holds one molecule with its values, some of them ahead of it. Non-standard residues stand in square brackets, D forms with d. Primed or numbered codes have the meaning given here. No end group written: not given here. FITC′ = fluorescein isothiocyanate label on the N-terminus; pS = N[C@@H](COP(=O)(O)O)C(=O)O

Key:
GK domain of PSD95 [1] = details: isothermal titration calorimetry assay; ref Zhu et al., 2017; cited from earlier work
GK domain of PSD95 [2] = details: fluorescence polarization assay, cited from earlier work
Source text: page 6: 2. Supplementary Tables Supplementary Table 1.

[3] = molecular target: T1, His6-tagged PSD95 GK domain (a.a. 531-713) (UniProt P31016 531-713); test: fluorescence polarisation; direct titration: 10 nM FITC-SAPAP constant, His-GK 0 to 20 uM; 50 mM Tris, 100 mM NaCl, pH 7.5; 384-well plates, 1-h incubation; details: both partners purified
T1 construct: postsynaptic density protein 95 (PSD95, encoded by DLG4), guanylate kinase (GK) domain, a.a; 531-713; In the MST assay the protein was labelled on its His tag with the RED-Tris-NTA kit; The PDB entries are cited crystal structures of PSD95 GK with peptides; also called His-GK; His-PSD95 GK; source: E. coli BL21 (DE3), purified (Ni-NTA, size-exclusion chromatography); not shown: His6, N-terminal, …
T1 sequence (P31016 531-713): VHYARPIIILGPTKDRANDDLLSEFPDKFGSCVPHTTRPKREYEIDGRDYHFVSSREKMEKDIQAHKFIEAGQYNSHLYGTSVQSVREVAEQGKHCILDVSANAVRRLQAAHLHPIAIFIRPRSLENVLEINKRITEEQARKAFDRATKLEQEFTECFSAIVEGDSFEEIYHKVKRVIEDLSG

Molecule: AARRE[pS]YLKATQPSL [p-SAPAP]
- Kd (GK domain of PSD95 [1]): 80 ± 10 nM

Molecule: AELEGGPYSPLGKDYRKAEGEREEEG [MAP1A]
- Kd (GK domain of PSD95 [2]; ref Xia et al., 2017): 12100 ± 200 nM

Molecule: GRRH[pS]MENLELMKLTPEK [p-LGN]
- Kd (GK domain of PSD95 [2]; ref Zhu et al., 2011): 530 ± 90 nM

Molecule: LSRVK[pS]LKKSLRQSF [p-LGL2]
- Kd (GK domain of PSD95 [2]; ref Zhu et al., 2014): 10200 ± 1300 nM

Molecule: RIRREEYRRAINGQSFDLS
- Kd (GK domain of PSD95 [1]): 660 ± 130 nM

Molecule: RIRREEYRRAINGQSMKL
- Kd (GK domain of PSD95 [1]): 1860 ± 310 nM

- Kd [3]: 4280 nM
B1: FITC-labeled SAPAP peptide FITC-AARRE(pS)YLKATQ (peptide)
peptide: {FITC′}-AARRE[pS]YLKATQ
notes: phosphorylated SAPAP peptide; SAPAP1 (DLGAP1, GKAP) is the member it names elsewhere; also called FITC-SAPAP; FITC-SAPAP probe; source: synthetic peptide, bought: China Peptides
